The results in this text go back to patent US5955616A, “Pyrrolidine derivatives having phospholipase A2 inhibitory activity” (Shionogi & Co., Ltd., priority 1995, dated 1999).

The structures appear in SMILES notation.

The target in the assay is T1, cPLA2 (Homo sapiens, UniProt P47712).
T1 sequence (P47712 1-749): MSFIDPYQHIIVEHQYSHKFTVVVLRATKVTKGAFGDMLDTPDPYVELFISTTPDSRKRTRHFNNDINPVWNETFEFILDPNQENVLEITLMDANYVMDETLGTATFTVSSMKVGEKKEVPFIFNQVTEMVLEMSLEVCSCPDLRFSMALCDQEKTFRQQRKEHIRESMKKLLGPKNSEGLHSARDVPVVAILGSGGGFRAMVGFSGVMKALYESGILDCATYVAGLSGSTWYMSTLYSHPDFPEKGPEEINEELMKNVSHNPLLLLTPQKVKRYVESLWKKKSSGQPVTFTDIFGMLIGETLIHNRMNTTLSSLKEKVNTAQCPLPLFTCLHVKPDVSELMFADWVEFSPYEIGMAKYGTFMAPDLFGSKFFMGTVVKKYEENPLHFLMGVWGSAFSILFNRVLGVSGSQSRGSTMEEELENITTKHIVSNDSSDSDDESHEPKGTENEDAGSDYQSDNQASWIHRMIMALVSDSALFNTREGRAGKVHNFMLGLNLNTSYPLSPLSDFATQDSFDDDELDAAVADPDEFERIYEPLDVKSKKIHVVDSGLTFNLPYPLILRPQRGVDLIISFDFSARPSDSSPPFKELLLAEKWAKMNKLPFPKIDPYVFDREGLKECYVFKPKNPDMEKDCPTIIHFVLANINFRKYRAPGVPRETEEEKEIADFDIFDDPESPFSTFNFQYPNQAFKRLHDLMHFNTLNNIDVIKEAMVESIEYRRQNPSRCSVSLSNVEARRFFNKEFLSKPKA
In words: cPLA2 Inhibitory activity (release of radiolabelled fatty acid from liposomes). In kind it is biochemical. The conditions noted are these: 50 mM HEPES pH 7.4, 1 mM CaCl2, 2.5 μM radio-labeled phosphatidylcholine, 15 min at 37° C; read-out: cPLA2 Inhibition Activity IC50. As to the method: Experiment 1 cPLA2 Inhibitory activity
The compounds of the present invention was tested for the cPLA2 inhibitory activity by a method known in a literature (R. M. Kramer, E. F. Roberts, J. Manetta and J. E. Putnam, J. Biol. Chem., 268(8), 5268-5272 ([…])), as outlined below.
As a substrate, liposomes which contain 1-palmitoyl-2-[^14 C]-arachidonoyl-sn-glycero-3-phosphocholine and sn-1,2-dioleoylglycerol at the ratio of 2:1 and have treated ultrasonically were used. The substrate was added to a 50 mM HEPES buffer (pH 7.4) (200 μl) containing 1 mM CaCl2, 2 mM dithiothreitol, 150 mM NaCl, 0.1 mg/ml BSA so as to make the concentration of radio-labeled phosphatidylcholine 2.5 μM. To the solution was added a compound of the present invention in DMSO (10 μl) to obtain reaction solutions each containing the test compound at 250 μM, 50 μM, 10 μm, 2 μM, and 0.4 μM. The reaction was allowed to start by adding an enzyme (cPLA2) (4 ng) and continued for 15 min at 37° C.
The amount of fatty acids released by the reaction was measured on a liquid scintillation counter. Control was obtained by conducting the experiment in the same manner except that a compound of the present invention was not added. The inhibitory activity was expressed as percent (%) to the control value, which was used for the calculation of the concentration required for 50% inhibition (IC50, μM).

Usually IC50 stands for the concentration that gives 50% inhibition. Regarding `O=C1NC(=S)SC1=Cc1ccc(NC(=O)[C@@H]2C[C@H](SCc3ccccc3)CN2C(=O)c2ccccc2)cc1` [Compound A-2], the IC50 was found to be 7.2 µM.

Regarding `Cc1cc(C)c(CS[C@H]2C[C@@H](C(=O)Nc3ccc(C=C4SC(=O)NC4=O)cc3)N(C(=O)c3ccccc3)C2)c(C)c1` [Compound A-10], the IC50 was 3.8 µM.

Consider `O=CN1C[C@@H](SCc2ccccc2)C[C@H]1C(=O)Nc1ccc(C=C2SC(=S)NC2=O)cc1` [Compound A-13], for which the IC50 was determined as 20 µM.

On to `CC(=O)N1C[C@@H](SCc2ccccc2)C[C@H]1C(=O)Nc1ccc(C=C2SC(=S)NC2=O)cc1` [Compound A-14], for which the IC50 was determined as 18 µM.

For `CS[C@H]1C[C@@H](C(=O)Nc2ccc(C=C3SC(=S)NC3=O)cc2)N(C(=O)c2ccc(C(F)(F)F)cc2)C1` [Compound A-15], the IC50 was 15 µM.

For the molecule `O=C1NC(=S)SC1=Cc1ccc(NC(=O)[C@@H]2C[C@H](SCc3ccccc3)CN2)cc1` [Compound A-18], the IC50 was found to be 16 µM.

As to `CCCCCCCCCCCCCC(=O)N1C[C@@H](SC)C[C@H]1C(=O)Nc1ccc(C=C2SC(=S)NC2=O)cc1` [Compound A-19], the IC50 is 4.3 µM.

`CS[C@H]1C[C@@H](C(=O)Nc2ccc(C=C3SC(=S)NC3=O)cc2)N(C(=O)CCc2ccccc2)C1` [Compound A-22]: the IC50 amounted to 21 µM.

`CCCCS(=O)(=O)N1C[C@@H](SCc2ccccc2)C[C@H]1C(=O)Nc1ccc(C=C2SC(=S)NC2=O)cc1` [Compound A-31]: the IC50 is 4.8 µM.

Take `CN(C)S(=O)(=O)N1C[C@@H](SCc2ccccc2)C[C@H]1C(=O)Nc1ccc(C=C2SC(=S)NC2=O)cc1` [Compound A-32]: the IC50 came to 4.8 µM.

As to `CC(C)S(=O)(=O)N1C[C@@H](SCc2ccccc2)C[C@H]1C(=O)Nc1ccc(C=C2SC(=S)NC2=O)cc1` [Compound A-33], the IC50 amounted to 6.4 µM.

For the molecule `CS[C@H]1C[C@@H](C(=O)Nc2ccc(/C=C3\SC(=S)NC3=O)cc2)N(S(=O)(=O)c2ccc(Br)cc2)C1` [Compound A-34], the IC50 amounted to 6.3 µM.

For `CS[C@H]1C[C@@H](C(=O)Nc2ccc(/C=C3\SC(=O)NC3=O)cc2)N(S(=O)(=O)c2ccc(Br)cc2)C1` [Compound A-35], the IC50 is 1.9 µM.

Regarding `O=C1NC(=S)S/C1=C\c1ccc(NC(=O)[C@@H]2C[C@H](SCc3ccccc3)CN2S(=O)(=O)N2CCOCC2)cc1` [Compound A-36], the IC50 came out at 14 µM.

In the case of `CS[C@H]1C[C@@H](C(=O)Nc2ccc(/C=C3\SC(=S)NC3=O)cc2)N(S(=O)(=O)c2ccc(Cc3ccccc3)cc2)C1` [Compound A-47], the IC50 stood at 6 µM.

Turning to `CS[C@H]1C[C@@H](C(=O)Nc2ccc(/C=C3\SC(=S)NC3=O)cc2)N(S(=O)(=O)c2ccc(N(C)C)cc2)C1` [Compound A-49], the IC50 came out at 17 µM.

On to `CS[C@H]1C[C@@H](C(=O)Nc2ccc(/C=C3\SC(=O)NC3=O)cc2)N(S(=O)(=O)c2ccc3ccccc3c2)C1` [Compound A-50], for which the IC50 was determined as 12 µM.

Regarding `O=C1NC(=S)S/C1=C\c1ccc(NC(=O)[C@@H]2C[C@H](SCc3ccccc3)CN2S(=O)(=O)c2cccc3cccnc23)cc1` [Compound A-51], the IC50 was 6.3 µM.

With `O=C1NC(=S)S/C1=C\c1ccc(NC(=O)[C@@H]2C[C@H](SCc3ccccc3)CN2S(=O)(=O)c2ccc(N=Nc3ccccc3)cc2)cc1` [Compound A-57], the IC50 stood at 4.7 µM.

Take `CC(=O)Nc1nc(C)c(S(=O)(=O)N2C[C@@H](SCc3ccccc3)C[C@H]2C(=O)Nc2ccc(/C=C3\SC(=S)NC3=O)cc2)s1` [Compound A-59]: the IC50 came to 8.6 µM.

In the case of `O=C1NC(=S)O/C1=C\c1ccc(NC(=O)[C@@H]2C[C@H](SC(c3ccccc3)(c3ccccc3)c3ccccc3)CN2S(=O)(=O)c2ccc(-c3ccccc3)cc2)cc1` [Compound A-63], the IC50 was found to be 3.2 µM.

As to `O=C1NC(=O)C(=Cc2ccc(S(=O)(=O)NC[C@@H]3C[C@H](SC(c4ccccc4)c4ccccc4)CN3C(=O)c3ccccc3)cc2)S1` [Compound B-8], the IC50 worked out at 1.3 µM.

Regarding `O=C1NC(=O)C(=Cc2ccc(S(=O)(=O)NCC3CC(SC(c4ccccc4)(c4ccccc4)c4ccccc4)CN3C(=O)c3ccccc3)cc2)S1` (stereo not shown) [Compound B-9], the IC50 stood at 0.44 µM.

On to `O=C1NC(=O)/C(=C/c2ccc(COC[C@@H]3C[C@H](SC(c4ccccc4)(c4ccccc4)c4ccccc4)CN3C(=O)CCc3ccccc3)cc2)S1` [Compound E-1], for which the IC50 came out at 1.1 µM.

Consider `O=C1NC(=O)/C(=C/c2ccc(CCC[C@@H]3C[C@H](SC(c4ccccc4)(c4ccccc4)c4ccccc4)CN3C(=O)CCc3ccccc3)cc2)S1` [Compound E-3], for which the IC50 was 0.85 µM.

As to `O=C1NC(=O)C(=Cc2ccc(OC[C@@H]3C[C@H](SCc4ccccc4)CN3C(=O)c3ccccc3)cc2)S1` [Compound E-5], the IC50 stood at 7.7 µM.

Regarding `O=C1NC(=S)SC1=C[C@@H]1C[C@H](SCc2ccccc2)CN1S(=O)(=O)c1ccc(-c2ccccc2)cc1` [Compound F-2], the IC50 worked out at 10 µM.

Consider `CC(C)=CCC/C(C)=C/COC1C[C@@H](C(=O)Nc2ccc(/C=C3\SC(=O)NC3=O)cc2)N(C(=O)c2ccccc2)C1` (stereo partly shown) [Compound G-1], for which the concentration for half-maximal inhibition (IC50) was determined as 9 µM.

Consider `O=C1NC(=O)/C(=C/c2ccc(NC(=O)[C@@H]3CC(OCc4ccc(F)cc4)CN3C(=O)c3ccccc3)cc2)S1` (stereo partly shown) [Compound G-2], for which the IC50 was determined as 20 µM.

With `O=C1NC(=O)/C(=C/c2ccc(NC(=O)[C@@H]3CC(OCc4ccc(Cl)cc4)CN3C(=O)c3ccccc3)cc2)S1` (stereo partly shown) [Compound G-3], the IC50 was found to be 17 µM.

In the case of `O=C1NC(=O)/C(=C/c2ccc(NC(=O)[C@@H]3CC(OCc4ccc(C(F)(F)F)cc4)CN3C(=O)c3ccccc3)cc2)S1` (stereo partly shown) [Compound G-4], the IC50 was found to be 14 µM.

With `Cc1cc(C)c(COC2C[C@@H](C(=O)Nc3ccc(C=C4SC(=O)NC4=O)cc3)N(C(=O)c3ccccc3)C2)c(C)c1` (stereo partly shown) [Compound G-6], the IC50 came to 10 µM.

Regarding `O=C1NC(=O)/C(=C/c2ccc(NC(=O)[C@@H]3CC(OC(c4ccccc4)c4ccccc4)CN3C(=O)c3ccccc3)cc2)S1` (stereo partly shown) [Compound G-9], the IC50 was determined as 4.2 µM.

Consider `O=C1NC(=O)/C(=C/c2ccc(C(=O)NC[C@@H]3CC(OC(c4ccccc4)c4ccccc4)CN3C(=O)c3ccccc3)cc2)S1` (stereo partly shown) [Compound H-1], for which the IC50 amounted to 6.7 µM.

As for `O=C1NC(=O)/C(=C/c2ccc(C(=O)NC[C@@H]3CC(OCc4ccc(F)cc4F)CN3S(=O)(=O)Cc3ccc(Br)cc3)cc2)S1` (stereo partly shown) [Compound H-2], the IC50 stood at 8.1 µM.

`Cc1ccc(CS(=O)(=O)N2CC(OCc3ccc(F)cc3F)C[C@H]2CNC(=O)c2ccc(/C=C3\SC(=O)NC3=O)cc2)cc1` (stereo partly shown) [Compound H-3]: the IC50 was found to be 14 µM.

On to `COC1C[C@@H](CNC(=O)c2ccc(/C=C3\SC(=O)NC3=O)cc2)N(S(=O)(=O)c2ccc(Cc3ccccc3)cc2)C1` (stereo partly shown) [Compound H-4], for which the IC50 is 26 µM.

Turning to `O=C1NC(=O)/C(=C/c2ccc(C(=O)NC[C@@H]3CC(OCc4ccc(F)cc4F)CN3S(=O)(=O)c3ccc(Cc4ccccc4)cc3)cc2)S1` (stereo partly shown) [Compound H-5], the IC50 was found to be 6.4 µM.

On to `CC(C)(C)OC(=O)N1CC(OCc2ccc(F)cc2F)C[C@H]1CNC(=O)c1ccc(/C=C2\SC(=O)NC2=O)cc1` (stereo partly shown) [Compound H-6], for which the IC50 is 1.7 µM.

Consider `CC(C)(C)OC(=O)N1CC(OCc2ccc(F)cc2F)C[C@H]1CNC(=O)c1ccc(/C=C2\SC(=S)NC2=O)cc1` (stereo partly shown) [Compound H-7], for which the IC50 came to 11 µM.

As for `O=C1NC(=O)/C(=C/c2ccc(C(=O)NC[C@@H]3C[C@H](OC(c4ccccc4)c4ccccc4)CN3C(=O)c3cccc(OCN4C(=O)c5ccccc5S4(=O)=O)c3)cc2)S1` [Compound H-12], the IC50 stood at 6.2 µM.

As for `O=C1NC(=O)/C(=C/c2ccc(C(=O)NC[C@@H]3C[C@H](OC(c4ccccc4)c4ccccc4)CN3C(=O)c3ccc(OCN4C(=O)c5ccccc5S4(=O)=O)cc3)cc2)S1` [Compound H-13], the IC50 was determined as 4.4 µM.

As for `CC(C)(C)[Si](C)(C)N1C(=O)C[C@H]1C(=O)N1C[C@@H](OC(c2ccccc2)c2ccccc2)C[C@H]1CNC(=O)c1ccc(/C=C2\SC(=O)NC2=O)cc1` [Compound H-14], the IC50 came to 8.2 µM.
